Reference: ChEMBL document CHEMBL1143110, “Targeting ACE and ECE with dual acting inhibitors” (Bioorg Med Chem Lett, 2008)

Assays:
Neprilysin = Neprilysin (Homo sapiens, UniProt P08473); experiment: Inhibition of NEP
[1] = Inhibition of ECE
[2] = target: Angiotensin-converting enzyme (Homo sapiens, UniProt P12821); experiment: Inhibition of ACE

Compound	IC50 (Neprilysin) [µM]	IC50 [1] [µM]	IC50 [2] [µM]
CC(C)CN(C[C@H](O)C(=O)O)C(=O)N[C@@H](Cc1c[nH]c2ccccc12)C(=O)O	0.008	16.5	0.103
O=C(O)[C@H](Cc1ccc2ccccc2c1)NC(=O)N(Cc1ccc2c(c1)Cc1ccccc1-2)C[C@H](O)C(=O)O	19		0.15
CC(C)CN(CCP(=O)(O)O)C(=O)N[C@@H](Cc1ccc2ccccc2c1)C(=O)O	0.006		
CCC(CC)CN(C[C@H](O)C(=O)O)C(=O)N[C@@H](Cc1ccc2ccccc2c1)C(=O)O	0.036		
O=C1c2ccccc2-c2ccc(CN(C[C@H](O)C(=O)O)C(=O)N[C@@H](Cc3ccc4ccccc4c3)C(=O)O)cc21			0.039
CC(C)CN(C[C@H](O)C(=O)O)C(=O)N[C@@H](Cc1ccc(O)c(O)c1)C(=O)O	0.019		0.023
CC(C)CN(C[C@H](O)C(=O)O)C(=O)N[C@@H](Cc1ccc(O)cc1)C(=O)O	0.006		0.06
O=C(O)[C@H](Cc1ccc2ccccc2c1)NC(=O)N(CCN1C(=O)c2cccc3cccc(c23)C1=O)C[C@H](O)C(=O)O	0.65	0.6	1.98
O=C1c2ccccc2C(=O)c2cc(CN(C[C@H](O)C(=O)O)C(=O)N[C@@H](Cc3ccc4ccccc4c3)C(=O)O)ccc21			0.04
CC(C)(C)CN(C[C@H](O)C(=O)O)C(=O)N[C@@H](Cc1ccc2ccccc2c1)C(=O)O	0.005		0.191
CC(C)CN(C[C@H](O)C(=O)O)C(=O)N[C@@H](Cc1ccc(-c2ccccc2)cc1)C(=O)O	0.01	3.49	0.035
CC(C)CN(C[C@H](O)C(=O)O)C(=O)N[C@@H](Cc1cccc2ccccc12)C(=O)O	0.009		0.11
CC(C)CN(CP(=O)(O)O)C(=O)N[C@@H](Cc1ccc2ccccc2c1)C(=O)O	0.002		0.029
CC(C)CN(C[C@H](O)C(=O)O)C(=O)N[C@@H](Cc1ccc2ccccc2c1)C(=O)O	0.004	2.5	0.052
